US20100204161A1, “Substances and Pharmaceutical Compositions for the Inhibition of Glyoxalases and Their Use Against Bacteria” (BIOMAC PRIVATINSTITUT FUR MEDIZINISHE UND ZAHMEDIZ …, priority 2005, published 2010)

Key:
[1] = tested on: primary human skin fibroblasts; assay: Vitality of primary human fibroblasts (dye exclusion count); assay type: cell-based; conditions: 1-50 mM, serum free medium, 24 hours; FIG. 7
Experimental: An identical number (10^4 cells per well) of primary human skin fibroblasts were inoculated in 24-well plates (Greiner, no. 662160) and were cultured in DMEM (Gibco; no. 41966-092) in the presence of 10% calf serum (Biochrom, S0113/5), 2 mM L-glutamine (Gibco; no. 25030-024), penicillin/streptomycin (100 units penicillin/ml; 100 μg streptomycin/ml, Gibco; no. 15140/122), 5 mg % ascorbic acid (Serva, no. 14030.02) at 37° C., 5% CO2 and 95% humidity. The primary human fibroblasts were prepared according to the instructions of Birkenmeier et al. (1998). After reaching 50% confluency the medium was by fresh serum free medium. Thereafter the following supplements were added to the cells: preparation 1 (equivalent volume of serum free (SF) medium, blank); preparation 2 (1 mM DEL or 1 mM LEL or 1 mM EP); preparation 3 (5 mM DEL or 5 mM LEL or 5 mM EP), preparation 4 (10 mM DEL or 10 mM LEL or 10 mM EP), preparation 5 (20 mM DEL or 20 mM LEL or 20 mM EP), preparation 6 (50 mM DEL or 50 mM LEL or 50 mM EP). The culture was continued at 37° C., 5% CO2 and 95% humidity for 24 hours. Thereafter the supernatants were removed and 100 μl of a 50% […] solution was added to the wells. After washing the cells with medium the unstained and stained cells were counted under the light optical microscope comprising a coordinate plane. Cells stained blue were assessed as avital, unstained cells as vital. The percentage of unstained cells of the total number of cells corresponds to the vitality of the cells.

yeast glyoxalase I = molecular target: T1, yeast glyoxalase I (Saccharomyces cerevisiae, UniProt P50107); assay: Enzymatic activity of yeast glyoxalase I (formation of S-D-lactoyl-glutathione, 240 nm); assay type: biochemical; conditions: for Influence on the enzymatic activity of yeast glyoxalase I: increasing concentrations (0-30 mM in Example 5), FIG. 1-3
T1 construct: purchased Sigma G-4252
T1 sequence (P50107 1-326): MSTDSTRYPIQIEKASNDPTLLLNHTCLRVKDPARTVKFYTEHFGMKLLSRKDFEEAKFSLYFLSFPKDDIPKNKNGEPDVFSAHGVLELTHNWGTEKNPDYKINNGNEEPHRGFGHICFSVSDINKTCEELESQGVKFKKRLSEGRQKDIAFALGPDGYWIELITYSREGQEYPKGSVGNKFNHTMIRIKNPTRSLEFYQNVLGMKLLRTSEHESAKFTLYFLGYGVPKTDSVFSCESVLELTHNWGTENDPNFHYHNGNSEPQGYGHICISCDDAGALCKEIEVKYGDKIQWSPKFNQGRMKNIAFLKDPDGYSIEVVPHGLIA
Experimental: Measuring glyoxalase I (E.C.4.4.1.5, lactoyl-glutathione lyase Sigma, G-4252) was performed according to the instructions of McLellan and Thornalley (1989). The principle is based on measuring the initial rate of formation of S-D-lactoyl-glutathione from methylglyoxal (Sigma, MO252, 40%) and reduced L-glutathione (Aldrich, G-4251, >99%). The formation of the product is observed using the extinction coefficient e=2.86 mM-1 cm-1 at 240 nm. The measurement was performed in 50 mM sodium phosphate buffer, pH 7.0. For that purpose 2 mM methylglyoxal and 2 mM reduced glutathione were incubated for 2 minutes at 30° C. for the formation of the hemithioacetal. Thereafter 20 μl of a 1 to 1000 dilution of the glyoxalase I (Sigma, G-4252) was added to 1 ml of the measuring reagent to start the reaction.
Glyoxalase activity (IU) corresponds to the amount of enzyme forming 1 μmol of S-D-lactoyl-glutathione/min.
Determination of glyoxalase I activity was performed according to the general protocol as described above. The influence of ethyl pyruvate on enzyme activity was investigated by addition of increasing concentrations of EP (Sigma; no. E4, 780-8; lot. S18972-513) to the measuring reagent.
Determination of glyoxalase I activity was performed according to the general protocol as described above. The influence of compounds of the general formula (I), (II), and (III) on the activity of the enzyme was investigated by addition of increasing concentrations of these compounds to the preparation. The IC50-values were calculated from inhibition curves of each compound.
Determination of glyoxalase I activity was performed according to the general protocol as described above. The influence of 2-oxopropanethioic acid S-ethyl ester on the activity of the enzyme was investigated by addition of increasing concentrations of SE to the preparation for the measurement.
Determination of glyoxalase I activity was performed according to the general protocol as described above. The influence of effectors on the enzymatic activity was investigated by addition of increasing concentrations (0-30 mM) of EP (Sigma; no. E4, 780-8; lot. S18972-513) (triangle), BP (prepared according to the instructions of patent JP 11080089; 98%) (circle) and BL (Fluka, 69819; lot. 443090/1 21503090) (squares) to the measuring reagent (FIG. 3).

[2] = tested on: NAD-dependent lactate dehydrogenases; assay: Interconversion by NAD-dependent lactate dehydrogenases; assay type: in vitro ADME; conditions: inventors' own measurements
[3] = tested on: biofilms (biofilm-forming microorganisms from pipe water); assay: Destruction of biofilms on contaminated silicone surfaces (colony forming units); assay type: cell-based; conditions: normalized to 1 cm2 inner tube surface
Experimental: Biofilms were allowed to generate in a silicon tube system according to Gebel et al. (2005). In short, pipe water from a public water distributor was used as the source of biofilm-forming microorganisms. Water flow was at about 20 l per hour through silicon tubes from two commercial suppliers with inner diameters of 4 mm for 30 days at 25° C. After that the tubes were emptied, sealed at both ends and treated on their outer surface with 0.2% peroxoacetic acid for 1 hour. Tubes were then rinsed with sterile water and afterwards cut into pieces of 5 cm length each using a sterile scalpel. Pieces obtained this way were then dipped into solutions which contained the substance to be tested or respective controls. 25 ml of the test solutions were used in closed Falcon tubes (50 ml). […] Tubes were opened over their full length with scissors and the material deposited at the original inner surfaces of the tubes homogenized in 10 ml of saline (9 g NaCl/l water). Dilutions were made (decimal steps to 10^4) and 0.1 ml of these solutions plated onto test agar plates (1 l contained 0.5 g yeast extract, 0.5 g peptone, 0.5 g casein hydrolysate, 0.5 g starch. 0.3 g potassium hydrogen phosphate, 24 mg magnesium sulphate, 0.3 g sodium pyruvate, 15 g agar). Plates were incubated for seven days at 20° C. Colonies which formed were counted on each plate independent of their appearance and color. […] Two dilutions must be consistent in colony numbers, taken into consideration the respective dilution factors. Numbers were normalized to 1 cm2 of the inner tube surface. Each substance was analysed in duplicates. Biofilms were treated with water (control), ethyl pyruvate […] Numbers are given for each of the different silicon tubes used.

CCOC(=O)[C@@H](C)O [(+)-Ethyl D-Lactate]
Effect on the vitality of primary human fibroblasts [1]: not toxic over the concentration range investigated

CCCCOC(=O)[C@H](C)O [(−)-Butyl L-Lactate]
Influence on the enzymatic activity of yeast glyoxalase I (yeast glyoxalase I): does not influence the reaction of glyoxalase

CCOC(=O)[C@H](C)O [(−)-Ethyl L-Lactate]
Effect on the vitality of primary human fibroblasts [1]: not toxic over the concentration range investigated

CCCCOC(=O)C(C)O (stereo not drawn) [Butyl lactate]
Transformation by NAD-dependent lactate dehydrogenases [2]: to a lesser degree than ethyl lactate, also be transformed

CCCCOC(=O)C(C)=O [Butyl pyruvate]
Effect on yeast glyoxalase I compared with EP (yeast glyoxalase I; 0-30 mM, FIG. 3): the effect of BP is stronger than the effect of EP | Influence on the enzymatic activity of yeast glyoxalase I (yeast glyoxalase I): inhibit the activity of glyoxalase I in a concentration dependent manner

CCOC(C)=O [Ester control, ethyl acetate, reference compound]
Colony forming units derivable from biofilms after treatment ([3]; 25 mM, 30 min, first silicon tube): 5.1 × 10^5 colony forming units | Colony forming units derivable from biofilms after treatment ([3]; 25 mM, 30 min, second silicon tube): 6.5 × 10^5 colony forming units | Colony forming units derivable from biofilms after treatment ([3]; 25 mM, 120 min, first silicon tube): 7.0 × 10^4 colony forming units | Colony forming units derivable from biofilms after treatment ([3]; 25 mM, 120 min, second silicon tube): 1.1 × 10^5 colony forming units

CC(=O)OO [Peroxo acetic acid, peroxoacetic acid, reference compound]
Colony forming units derivable from biofilms after treatment ([3]; 0.1%, 30 min, first silicon tube): 8.2 × 10^3 colony forming units | Colony forming units derivable from biofilms after treatment ([3]; 0.1%, 30 min, second silicon tube): 9.3 × 10^3 colony forming units | Colony forming units derivable from biofilms after treatment ([3]; 0.1%, 120 min, first silicon tube): 3.1 × 10^3 colony forming units | Colony forming units derivable from biofilms after treatment ([3]; 0.1%, 120 min, second silicon tube): 4.7 × 10^3 colony forming units

CCSC(=O)C(C)=O [SE, 2-Oxopropanethioic acid S-ethyl ester]
Influence on the enzymatic activity of yeast glyoxalase I (yeast glyoxalase I): inhibits the reaction of the glyoxalase I of yeast in a concentration dependent manner
